# Literature values as cited in patent US6955812B2, “Health food and preparation having an anti-obesity effect” (Mitsubishi Heavy Industries, Ltd., priority 2001, dated 2005).
# Test system: HepG2 cells
# Details: cultured HepG2 cells of a human liver model; from Japanese patent application No. 2000-202404
smiles,measurement,value
NC(CO)CS(=O)(=O)O [D-cysteinolic acid],effect on neutral fat (triglyceride),greatly suppressing
